According to the NIST ThermoML archive (doi:10.1021/je2006049):
Several values for one entry are separate records, joined by “and”; a condition that tells them apart may be missing. Equal entries are not always repeated.

Settings: Liquid; for electrical conductivity / mass density: 101.33 kPa; for electrical conductivity: Alternating current cell with electrodes; for mass density: Vibrating tube method

CCCC[N+]1(C)CCCC1.O=S(=O)([N-]S(=O)(=O)C(F)(F)F)C(F)(F)F
Settings	viscosity
273.15 K, 100 kPa, Falling or rolling sphere viscometry	319.28 mPa·s and 318.72 mPa·s and 320.44 mPa·s
273.15 K, 101.3 kPa, Concentric cylinders viscometry	322.4 mPa·s
273.15 K, 820 kPa, Falling or rolling sphere viscometry	318.29 mPa·s
273.15 K, 10850 kPa, Falling or rolling sphere viscometry	378.12 mPa·s
273.15 K, 20760 kPa, Falling or rolling sphere viscometry	441.79 mPa·s
273.15 K, 32190 kPa, Falling or rolling sphere viscometry	542.04 mPa·s
273.15 K, 40240 kPa, Falling or rolling sphere viscometry	621.51 mPa·s
273.15 K, 45000 kPa, Falling or rolling sphere viscometry	677.25 mPa·s
273.15 K, 50310 kPa, Falling or rolling sphere viscometry	729.34 mPa·s
273.15 K, 59200 kPa, Falling or rolling sphere viscometry	837.7 mPa·s
273.15 K, 60550 kPa, Falling or rolling sphere viscometry	855.99 mPa·s
273.15 K, 69280 kPa, Falling or rolling sphere viscometry	983.67 mPa·s
273.15 K, 70310 kPa, Falling or rolling sphere viscometry	1008.7 mPa·s
273.15 K, 80520 kPa, Falling or rolling sphere viscometry	1184.8 mPa·s
278.15 K, 100 kPa, Falling or rolling sphere viscometry	224.84 mPa·s and 224.85 mPa·s
278.15 K, 101.3 kPa, Concentric cylinders viscometry	230.9 mPa·s
283.15 K, 100 kPa, Falling or rolling sphere viscometry	167.09 mPa·s [middle of 4 runs]
283.15 K, 101.3 kPa, Concentric cylinders viscometry	170.1 mPa·s
283.15 K, 10140 kPa, Falling or rolling sphere viscometry	192.43 mPa·s
283.15 K, 19970 kPa, Falling or rolling sphere viscometry	222.97 mPa·s
283.15 K, 29990 kPa, Falling or rolling sphere viscometry	259.18 mPa·s
283.15 K, 40620 kPa, Falling or rolling sphere viscometry	303.3 mPa·s
283.15 K, 50520 kPa, Falling or rolling sphere viscometry	350.45 mPa·s
283.15 K, 59770 kPa, Falling or rolling sphere viscometry	398.94 mPa·s
283.15 K, 70190 kPa, Falling or rolling sphere viscometry	463.39 mPa·s
283.15 K, 78710 kPa, Falling or rolling sphere viscometry	517.26 mPa·s
283.15 K, 89720 kPa, Falling or rolling sphere viscometry	620.7 mPa·s
283.15 K, 89960 kPa, Falling or rolling sphere viscometry	604.22 mPa·s
283.15 K, 100390 kPa, Falling or rolling sphere viscometry	708.87 mPa·s and 702.53 mPa·s
288.15 K, 101.3 kPa, Concentric cylinders viscometry	128.4 mPa·s
293.15 K, 100 kPa, Falling or rolling sphere viscometry	99.81 mPa·s and 99.92 mPa·s
293.15 K, 101.3 kPa, Concentric cylinders viscometry	98.95 mPa·s and 99 mPa·s
298.15 K, 100 kPa, Falling or rolling sphere viscometry	76.63 mPa·s [middle of 5 runs]
298.15 K, 101.3 kPa, Concentric cylinders viscometry	77.83 mPa·s
298.15 K, 860 kPa, Falling or rolling sphere viscometry	77.22 mPa·s
298.15 K, 10370 kPa, Falling or rolling sphere viscometry	87.96 mPa·s
298.15 K, 20760 kPa, Falling or rolling sphere viscometry	100.93 mPa·s
298.15 K, 30700 kPa, Falling or rolling sphere viscometry	114.96 mPa·s
298.15 K, 40660 kPa, Falling or rolling sphere viscometry	130.58 mPa·s

Settings	electrical conductivity [S/m]	mass density
273.15 K	0.0741	1416.89 kg/m3 and 1416.94 kg/m3 and 1416.7 kg/m3
278.15 K	0.101	1412.1 kg/m3
283.15 K	0.134	1407.76 kg/m3 and 1407.82 kg/m3 and 1407.6 kg/m3
288.15 K	0.174	1403.39 kg/m3 and 1403.2 kg/m3
293.14 K	0.221	–
293.15 K	–	1398.92 kg/m3 [middle of 4 runs]
298.14 K	0.276	–
298.15 K	0.275	1394.51 kg/m3 and 1394.4 kg/m3
